We go through eleven molecules from ChEMBL document CHEMBL1146309, “Tetrahydrobenzotriazines as a new class of nematocide” (2007).

The structures appear in SMILES notation.

The subject of the experiment is Caenorhabditis elegans. The experiment in a line: Nematocidal activity against Caenorhabditis elegans assessed as revised death rate after 24 to 48 hrs. Further details: concentration or dose not given beside the values. Format: functional.
On to `CN=C=S` [METHYLISOTHIOCYANATE], for which the Activity was determined as 100%. With `CC1=CC=CC2(C)CN(C)N(C(=S)N(C)c3ccccc3)N=C12` (stereo unspecified) the figure was 100%; with `CC1=CC=CC2(C)CN(C)N(C(=S)Nc3ccccc3)N=C12` (stereo unspecified), 20.9%. As for `CC1=CC=CC2(C)CN(C)N(C(=O)N(C)c3ccccc3)N=C12` (stereo unspecified), the Activity was determined as 74.2%. With `CCCCCCCCCCCC(=O)N1N=C2C(C)=CC=CC2(C)CN1C` (stereo unspecified), the Activity is given as 17.2%.

As to `CCCCCCCC(=O)N1N=C2C(C)=CC=CC2(C)CN1C` (stereo unspecified), the Activity was 10.3%.

`CCCCCCCCCCC(=O)N1N=C2C(C)=CC=CC2(C)CN1C` (stereo unspecified): the Activity was determined as 20.3%. To `CC(=O)N1N=C2C(C)=CC=CC2(C)CN1C` (stereo unspecified) belongs 100%. To `CC1=CC=CC2(C)CN(C)N(C(=O)Nc3ccccc3)N=C12` (stereo unspecified) belongs 43.8%; to `CCCCCCCCCC(=O)N1N=C2C(C)=CC=CC2(C)CN1C` (stereo unspecified), 64.6%; to `CCCCCCCCC(=O)N1N=C2C(C)=CC=CC2(C)CN1C` (stereo unspecified), 97%.
